Where “and” joins values, the source holds several entries; their conditions need not be identical. Identical values can stand only once.
Columns and labels:
VIP peptides [1] = biological target: T1, VIP peptides (Cavia porcellus, UniProt P04566)
T1 sequence (P04566 whole entry): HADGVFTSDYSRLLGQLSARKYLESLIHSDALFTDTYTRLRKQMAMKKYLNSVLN

VIP peptides [2] = biological target: T2, VIP peptides (Homo sapiens, UniProt P01282)
T2 sequence (P01282 whole entry): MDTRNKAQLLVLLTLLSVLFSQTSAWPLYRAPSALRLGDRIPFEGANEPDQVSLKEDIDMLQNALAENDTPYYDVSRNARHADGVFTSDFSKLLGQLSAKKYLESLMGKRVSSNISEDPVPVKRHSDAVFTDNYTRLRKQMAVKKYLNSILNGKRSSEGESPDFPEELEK

SMILES | Ki (VIP peptides [1]) [nM] | Ki (VIP peptides [2])
CC[C@H](C)[C@H](NC(=O)[C@H](CO)NC(=O)[C@@H](CC(N)=O)NC(=O)[C@H](CC(C)C)NC(=O)[C@H](Cc1ccc(O)cc1)NC(=O)[C@H](CCCCN)NC(=O)[C@H](CCCCN)NC(=O)[C@@H](NC(=O)[C@H](C)NC(=O)[C@H](CCSC)NC(=O)[C@H](CCC(N)=O)NC(=O)[C@H](CCCCN)NC(=O)[C@H](CCCN=C(N)N)NC(=O)[C@H](CC(C)C)NC(=O)[C@H](CCCN=C(N)N)NC(=O)[C@@H](NC(=O)[C@H](Cc1ccc(O)cc1)NC(=O)[C@H](CC(N)=O)NC(=O)[C@H](CC(=O)O)NC(=O)[C@@H](NC(=O)[C@H](Cc1ccccc1)NC(=O)[C@@H](NC(=O)[C@H](C)NC(=O)[C@H](CC(=O)O)NC(=O)[C@H](CO)NC(=O)[C@@H](N)Cc1cnc[nH]1)C(C)C)[C@@H](C)O)[C@@H](C)O)C(C)C)C(=O)N[C@@H](CC(C)C)C(=O)N[C@@H](CC(N)=O)C(N)=O [VIP [D-Asn24]] | 60.3 | 2.6 nM and 11.8 nM and 12.6 nM
CC[C@H](C)[C@H](NC(=O)[C@H](CO)NC(=O)[C@H](CC(N)=O)NC(=O)[C@H](CC(C)C)NC(=O)[C@H](Cc1ccc(O)cc1)NC(=O)[C@H](CCCCN)NC(=O)[C@H](CCCCN)NC(=O)[C@@H](NC(=O)[C@H](C)NC(=O)[C@H](CCSC)NC(=O)[C@H](CCC(N)=O)NC(=O)[C@H](CCCCN)NC(=O)[C@H](CCCN=C(N)N)NC(=O)[C@H](CC(C)C)NC(=O)[C@H](CCCN=C(N)N)NC(=O)[C@@H](NC(=O)[C@H](Cc1ccc(O)cc1)NC(=O)[C@H](CC(N)=O)NC(=O)[C@@H](CC(=O)O)NC(=O)[C@@H](NC(=O)[C@H](Cc1ccccc1)NC(=O)[C@@H](NC(=O)[C@H](C)NC(=O)[C@H](CC(=O)O)NC(=O)[C@H](CO)NC(=O)[C@@H](N)Cc1cnc[nH]1)C(C)C)[C@@H](C)O)[C@@H](C)O)C(C)C)C(=O)N[C@@H](CC(C)C)C(=O)N[C@@H](CC(N)=O)C(N)=O [VIP [D-Asp8]] | 275 | 110 nM and 138 nM and 178 nM
CC[C@H](C)[C@H](NC(=O)[C@H](CO)NC(=O)[C@H](CC(N)=O)NC(=O)[C@H](CC(C)C)NC(=O)[C@H](Cc1ccc(O)cc1)NC(=O)[C@H](CCCCN)NC(=O)[C@H](CCCCN)NC(=O)[C@@H](NC(=O)[C@H](C)NC(=O)[C@H](CCSC)NC(=O)[C@H](CCC(N)=O)NC(=O)[C@H](CCCCN)NC(=O)[C@H](CCCN=C(N)N)NC(=O)[C@H](CC(C)C)NC(=O)[C@H](CCCN=C(N)N)NC(=O)[C@@H](NC(=O)[C@H](Cc1ccc(O)cc1)NC(=O)[C@H](CC(N)=O)NC(=O)[C@H](CC(=O)O)NC(=O)[C@@H](NC(=O)[C@H](Cc1ccccc1)NC(=O)[C@@H](NC(=O)[C@H](C)NC(=O)[C@H](CC(=O)O)NC(=O)[C@H](CO)NC(=O)[C@H](N)Cc1cnc[nH]1)C(C)C)[C@@H](C)O)[C@@H](C)O)C(C)C)C(=O)N[C@@H](CC(C)C)C(=O)N[C@@H](CC(N)=O)C(N)=O [VIP [D-His1]] | 22.4 | 0.74 nM and 4.1 nM and 3.7 nM
CC[C@@H](C)[C@@H](NC(=O)[C@H](CO)NC(=O)[C@H](CC(N)=O)NC(=O)[C@H](CC(C)C)NC(=O)[C@H](Cc1ccc(O)cc1)NC(=O)[C@H](CCCCN)NC(=O)[C@H](CCCCN)NC(=O)[C@@H](NC(=O)[C@H](C)NC(=O)[C@H](CCSC)NC(=O)[C@H](CCC(N)=O)NC(=O)[C@H](CCCCN)NC(=O)[C@H](CCCN=C(N)N)NC(=O)[C@H](CC(C)C)NC(=O)[C@H](CCCN=C(N)N)NC(=O)[C@@H](NC(=O)[C@H](Cc1ccc(O)cc1)NC(=O)[C@H](CC(N)=O)NC(=O)[C@H](CC(=O)O)NC(=O)[C@@H](NC(=O)[C@H](Cc1ccccc1)NC(=O)[C@@H](NC(=O)[C@H](C)NC(=O)[C@H](CC(=O)O)NC(=O)[C@H](CO)NC(=O)[C@@H](N)Cc1cnc[nH]1)C(C)C)[C@@H](C)O)[C@@H](C)O)C(C)C)C(=O)N[C@@H](CC(C)C)C(=O)N[C@@H](CC(N)=O)C(N)=O [VIP [D-Ile26]] | 72.4 | 38.2 nM and 48.9 nM and 33.2 nM
CC[C@H](C)[C@H](NC(=O)[C@H](CO)NC(=O)[C@H](CC(N)=O)NC(=O)[C@H](CC(C)C)NC(=O)[C@H](Cc1ccc(O)cc1)NC(=O)[C@H](CCCCN)NC(=O)[C@H](CCCCN)NC(=O)[C@@H](NC(=O)[C@H](C)NC(=O)[C@H](CCSC)NC(=O)[C@H](CCC(N)=O)NC(=O)[C@H](CCCCN)NC(=O)[C@H](CCCN=C(N)N)NC(=O)[C@@H](CC(C)C)NC(=O)[C@H](CCCN=C(N)N)NC(=O)[C@@H](NC(=O)[C@H](Cc1ccc(O)cc1)NC(=O)[C@H](CC(N)=O)NC(=O)[C@H](CC(=O)O)NC(=O)[C@@H](NC(=O)[C@H](Cc1ccccc1)NC(=O)[C@@H](NC(=O)[C@H](C)NC(=O)[C@H](CC(=O)O)NC(=O)[C@H](CO)NC(=O)[C@@H](N)Cc1cnc[nH]1)C(C)C)[C@@H](C)O)[C@@H](C)O)C(C)C)C(=O)N[C@@H](CC(C)C)C(=O)N[C@@H](CC(N)=O)C(N)=O [VIP [D-Leu13]] | 51.2 | 13.5 nM and 23.4 nM and 16.9 nM
CC[C@H](C)[C@H](NC(=O)[C@H](CO)NC(=O)[C@H](CC(N)=O)NC(=O)[C@@H](CC(C)C)NC(=O)[C@H](Cc1ccc(O)cc1)NC(=O)[C@H](CCCCN)NC(=O)[C@H](CCCCN)NC(=O)[C@@H](NC(=O)[C@H](C)NC(=O)[C@H](CCSC)NC(=O)[C@H](CCC(N)=O)NC(=O)[C@H](CCCCN)NC(=O)[C@H](CCCN=C(N)N)NC(=O)[C@H](CC(C)C)NC(=O)[C@H](CCCN=C(N)N)NC(=O)[C@@H](NC(=O)[C@H](Cc1ccc(O)cc1)NC(=O)[C@H](CC(N)=O)NC(=O)[C@H](CC(=O)O)NC(=O)[C@@H](NC(=O)[C@H](Cc1ccccc1)NC(=O)[C@@H](NC(=O)[C@H](C)NC(=O)[C@H](CC(=O)O)NC(=O)[C@H](CO)NC(=O)[C@@H](N)Cc1cnc[nH]1)C(C)C)[C@@H](C)O)[C@@H](C)O)C(C)C)C(=O)N[C@@H](CC(C)C)C(=O)N[C@@H](CC(N)=O)C(N)=O [VIP [D-Leu23]] | 41.6 | 3.1 nM and 19.5 nM and 18.6 nM
CC[C@H](C)[C@H](NC(=O)[C@H](CO)NC(=O)[C@H](CC(N)=O)NC(=O)[C@H](CC(C)C)NC(=O)[C@H](Cc1ccc(O)cc1)NC(=O)[C@H](CCCCN)NC(=O)[C@H](CCCCN)NC(=O)[C@@H](NC(=O)[C@H](C)NC(=O)[C@H](CCSC)NC(=O)[C@H](CCC(N)=O)NC(=O)[C@@H](CCCCN)NC(=O)[C@H](CCCN=C(N)N)NC(=O)[C@H](CC(C)C)NC(=O)[C@H](CCCN=C(N)N)NC(=O)[C@@H](NC(=O)[C@H](Cc1ccc(O)cc1)NC(=O)[C@H](CC(N)=O)NC(=O)[C@H](CC(=O)O)NC(=O)[C@@H](NC(=O)[C@H](Cc1ccccc1)NC(=O)[C@@H](NC(=O)[C@H](C)NC(=O)[C@H](CC(=O)O)NC(=O)[C@H](CO)NC(=O)[C@@H](N)Cc1cnc[nH]1)C(C)C)[C@@H](C)O)[C@@H](C)O)C(C)C)C(=O)N[C@@H](CC(C)C)C(=O)N[C@@H](CC(N)=O)C(N)=O [VIP [D-Lys15]] | 19.9 | 2 nM and 13.8 nM and 10.9 nM
CC[C@H](C)[C@H](NC(=O)[C@H](CO)NC(=O)[C@H](CC(N)=O)NC(=O)[C@H](CC(C)C)NC(=O)[C@H](Cc1ccc(O)cc1)NC(=O)[C@H](CCCCN)NC(=O)[C@@H](CCCCN)NC(=O)[C@@H](NC(=O)[C@H](C)NC(=O)[C@H](CCSC)NC(=O)[C@H](CCC(N)=O)NC(=O)[C@H](CCCCN)NC(=O)[C@H](CCCN=C(N)N)NC(=O)[C@H](CC(C)C)NC(=O)[C@H](CCCN=C(N)N)NC(=O)[C@@H](NC(=O)[C@H](Cc1ccc(O)cc1)NC(=O)[C@H](CC(N)=O)NC(=O)[C@H](CC(=O)O)NC(=O)[C@@H](NC(=O)[C@H](Cc1ccccc1)NC(=O)[C@@H](NC(=O)[C@H](C)NC(=O)[C@H](CC(=O)O)NC(=O)[C@H](CO)NC(=O)[C@@H](N)Cc1cnc[nH]1)C(C)C)[C@@H](C)O)[C@@H](C)O)C(C)C)C(=O)N[C@@H](CC(C)C)C(=O)N[C@@H](CC(N)=O)C(N)=O [VIP [D-Lys20]] | 17.3 | 4.2 nM and 22.4 nM and 16.9 nM
CC[C@H](C)[C@H](NC(=O)[C@H](CO)NC(=O)[C@H](CC(N)=O)NC(=O)[C@H](CC(C)C)NC(=O)[C@H](Cc1ccc(O)cc1)NC(=O)[C@@H](CCCCN)NC(=O)[C@H](CCCCN)NC(=O)[C@@H](NC(=O)[C@H](C)NC(=O)[C@H](CCSC)NC(=O)[C@H](CCC(N)=O)NC(=O)[C@H](CCCCN)NC(=O)[C@H](CCCN=C(N)N)NC(=O)[C@H](CC(C)C)NC(=O)[C@H](CCCN=C(N)N)NC(=O)[C@@H](NC(=O)[C@H](Cc1ccc(O)cc1)NC(=O)[C@H](CC(N)=O)NC(=O)[C@H](CC(=O)O)NC(=O)[C@@H](NC(=O)[C@H](Cc1ccccc1)NC(=O)[C@@H](NC(=O)[C@H](C)NC(=O)[C@H](CC(=O)O)NC(=O)[C@H](CO)NC(=O)[C@@H](N)Cc1cnc[nH]1)C(C)C)[C@@H](C)O)[C@@H](C)O)C(C)C)C(=O)N[C@@H](CC(C)C)C(=O)N[C@@H](CC(N)=O)C(N)=O [VIP [D-Lys21]] | 100 | 93.3 nM and 118 nM and 105 nM
CC[C@H](C)[C@H](NC(=O)[C@H](CO)NC(=O)[C@H](CC(N)=O)NC(=O)[C@H](CC(C)C)NC(=O)[C@H](Cc1ccc(O)cc1)NC(=O)[C@H](CCCCN)NC(=O)[C@H](CCCCN)NC(=O)[C@@H](NC(=O)[C@H](C)NC(=O)[C@H](CCSC)NC(=O)[C@H](CCC(N)=O)NC(=O)[C@H](CCCCN)NC(=O)[C@H](CCCN=C(N)N)NC(=O)[C@H](CC(C)C)NC(=O)[C@H](CCCN=C(N)N)NC(=O)[C@H](NC(=O)[C@H](Cc1ccc(O)cc1)NC(=O)[C@H](CC(N)=O)NC(=O)[C@H](CC(=O)O)NC(=O)[C@@H](NC(=O)[C@H](Cc1ccccc1)NC(=O)[C@@H](NC(=O)[C@H](C)NC(=O)[C@H](CC(=O)O)NC(=O)[C@H](CO)NC(=O)[C@@H](N)Cc1cnc[nH]1)C(C)C)[C@@H](C)O)[C@H](C)O)C(C)C)C(=O)N[C@@H](CC(C)C)C(=O)N[C@@H](CC(N)=O)C(N)=O [VIP [D-Thr11]] | 54.9 | 54.9 nM and 91.2 nM and 110 nM

— BindingDB's records for doi:10.1124/jpet.301.1.37 (National Institutes of Health, 2002)
